Measured values reported in ChEMBL document CHEMBL4028803, “Design, synthesis, and structure-activity relationship studies of benzothiazole derivatives as antifungal agents” (Eur J Med Chem, 2016).
Converted amounts (≈) assume the structure as drawn.

Each molecule was assayed on Candida albicans (assay: Antifungal activity against Candida albicans ATCC SC5314 by broth microdilution assay).
Format: functional

SMILES | MIC
COc1ccc2nc(C(=O)N[C@@H](Cn3ccnc3)C(=O)OC(C)C)sc2c1 | 2 µg/mL (≈ 5.15 µM)
CC(C)OC(=O)[C@H](Cn1ccnc1)NC(=O)c1nc2ccc(Br)cc2s1 | 0.125 µg/mL (≈ 0.286 µM)
CC(C)OC(=O)[C@@H](Cn1ccnc1)NC(=O)c1nc2ccc(Br)cc2s1 | 0.125 µg/mL (≈ 0.286 µM)
CC(C)COC(=O)[C@H](Cn1ccnc1)NC(=O)c1nc2c(Cl)cccc2s1 | > 64 µg/mL

Continued, values first:

MIC | SMILES
8 µg/mL (≈ 21.9 µM) | COC(=O)[C@H](Cn1ccnc1)NC(=O)c1nc2ccc(Cl)cc2s1
> 64 µg/mL | CNC(=O)[C@H](Cn1ccnc1)NC(=O)c1nc2ccc(Br)cc2s1
0.25 µg/mL (≈ 0.636 µM) | CC(C)OC(=O)[C@H](Cn1ccnc1)NC(=O)c1nc2ccc(Cl)cc2s1

These molecules were tested on Candida albicans (assay: Antifungal activity against Candida albicans CPCC 400523 by broth microdilution assay).
Format: functional

SMILES | MIC
COc1ccc2nc(C(=O)N[C@@H](Cn3ccnc3)C(=O)OC(C)C)sc2c1 | 4 µg/mL (≈ 10.3 µM)
CC(C)OC(=O)[C@H](Cn1ccnc1)NC(=O)c1nc2ccc(Br)cc2s1 | 0.5 µg/mL (≈ 1.14 µM)
CC(C)OC(=O)[C@@H](Cn1ccnc1)NC(=O)c1nc2ccc(Br)cc2s1 | 0.5 µg/mL (≈ 1.14 µM)
CC(C)COC(=O)[C@H](Cn1ccnc1)NC(=O)c1nc2c(Cl)cccc2s1 | > 64 µg/mL

The remaining lines, values ahead:

MIC | SMILES
16 µg/mL (≈ 43.9 µM) | COC(=O)[C@H](Cn1ccnc1)NC(=O)c1nc2ccc(Cl)cc2s1
> 64 µg/mL | CNC(=O)[C@H](Cn1ccnc1)NC(=O)c1nc2ccc(Br)cc2s1
2 µg/mL (≈ 5.09 µM) | CC(C)OC(=O)[C@H](Cn1ccnc1)NC(=O)c1nc2ccc(Cl)cc2s1

These molecules were tested on Cryptococcus neoformans (assay: Antifungal activity against Cryptococcus neoformans cgmcc 2.3161 by broth microdilution assay).
Format: functional

SMILES | MIC
COc1ccc2nc(C(=O)N[C@@H](Cn3ccnc3)C(=O)OC(C)C)sc2c1 | 32 µg/mL (≈ 82.4 µM)
CC(C)OC(=O)[C@H](Cn1ccnc1)NC(=O)c1nc2ccc(Br)cc2s1 | 2 µg/mL (≈ 4.57 µM)
CC(C)OC(=O)[C@@H](Cn1ccnc1)NC(=O)c1nc2ccc(Br)cc2s1 | 2 µg/mL (≈ 4.57 µM)
CC(C)COC(=O)[C@H](Cn1ccnc1)NC(=O)c1nc2c(Cl)cccc2s1 | > 64 µg/mL

The next lines start with the values.

MIC | SMILES
32 µg/mL (≈ 87.7 µM) | COC(=O)[C@H](Cn1ccnc1)NC(=O)c1nc2ccc(Cl)cc2s1
> 64 µg/mL | CNC(=O)[C@H](Cn1ccnc1)NC(=O)c1nc2ccc(Br)cc2s1
2 µg/mL (≈ 5.09 µM) | CC(C)OC(=O)[C@H](Cn1ccnc1)NC(=O)c1nc2ccc(Cl)cc2s1

Each molecule was assayed on Aspergillus fumigatus (assay: Antifungal activity against Aspergillus fumigatus cgmcc 3.7795 by broth microdilution assay).
Format: functional

SMILES | MIC
COc1ccc2nc(C(=O)N[C@@H](Cn3ccnc3)C(=O)OC(C)C)sc2c1 | > 64 µg/mL
CC(C)OC(=O)[C@H](Cn1ccnc1)NC(=O)c1nc2ccc(Br)cc2s1 | > 64 µg/mL
CC(C)OC(=O)[C@@H](Cn1ccnc1)NC(=O)c1nc2ccc(Br)cc2s1 | > 64 µg/mL
CC(C)COC(=O)[C@H](Cn1ccnc1)NC(=O)c1nc2c(Cl)cccc2s1 | > 64 µg/mL

The next lines start with the values.

MIC | SMILES
> 64 µg/mL | COC(=O)[C@H](Cn1ccnc1)NC(=O)c1nc2ccc(Cl)cc2s1
> 64 µg/mL | CNC(=O)[C@H](Cn1ccnc1)NC(=O)c1nc2ccc(Br)cc2s1
> 64 µg/mL | CC(C)OC(=O)[C@H](Cn1ccnc1)NC(=O)c1nc2ccc(Cl)cc2s1

What follows are molecules tested on Candida tropicalis (assay: Antifungal activity against Candida tropicalis cgmcc 2.3739 by broth microdilution assay).
Format: functional

SMILES | MIC
COc1ccc2nc(C(=O)N[C@@H](Cn3ccnc3)C(=O)OC(C)C)sc2c1 | 2 µg/mL (≈ 5.15 µM)
CC(C)OC(=O)[C@H](Cn1ccnc1)NC(=O)c1nc2ccc(Br)cc2s1 | 0.5 µg/mL (≈ 1.14 µM)
CC(C)OC(=O)[C@@H](Cn1ccnc1)NC(=O)c1nc2ccc(Br)cc2s1 | 1 µg/mL (≈ 2.29 µM)
CC(C)COC(=O)[C@H](Cn1ccnc1)NC(=O)c1nc2c(Cl)cccc2s1 | > 64 µg/mL

Next, values leading:

MIC | SMILES
8 µg/mL (≈ 21.9 µM) | COC(=O)[C@H](Cn1ccnc1)NC(=O)c1nc2ccc(Cl)cc2s1
> 64 µg/mL | CNC(=O)[C@H](Cn1ccnc1)NC(=O)c1nc2ccc(Br)cc2s1
1 µg/mL (≈ 2.55 µM) | CC(C)OC(=O)[C@H](Cn1ccnc1)NC(=O)c1nc2ccc(Cl)cc2s1

These molecules were tested on Candida albicans (assay: Antifungal activity against fluconazole-resistant Candida albicans 100 by broth microdilution assay).
Format: functional

SMILES | MIC
CC(C)OC(=O)[C@H](Cn1ccnc1)NC(=O)c1nc2ccc(Br)cc2s1 | 32 µg/mL (≈ 73.2 µM)

Each molecule was assayed on Candida albicans (assay: Antifungal activity against fluconazole-resistant Candida albicans 103 by broth microdilution assay).
Format: functional

SMILES | MIC
CC(C)OC(=O)[C@H](Cn1ccnc1)NC(=O)c1nc2ccc(Br)cc2s1 | 16 µg/mL (≈ 36.6 µM)
